Results published in paper PMC11568388 (Molecular Biology and Evolution, 2024).

System: Aplysia californica
Format: in vivo

SMILES	Behavioral phenotype (in vivo)	Onset of behavioral phenotype after injection (in vivo) [min]	Locomotion (n = 3)	Behavior vs saline-injected control (in vivo)
NCCc1c[nH]c2ccc(O)cc12 [serotonin]	notable inability of the animal's foot to completely stick to the tank wall, resulting in impaired locomotion	≤ 1	immediate hyperlocomotive phenotype	–
NCC(O)c1ccc(O)cc1 (stereo not shown) [octopamine]	–	–	–	did not alter A. californica behavior significantly different from control
